From PubChem BioAssay (NCI)
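All cell lines were grown in 96-well plates and treated with compound for 48 hours. GI50: concentration for 50% inhibition of growth. TGI: total growth inhibition.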

How the values were obtained:
Test in all cases: NCI-60 cell line screen, 48 h
COLO 205 colon = test system: COLO 205 colon
DU-145 prostate = test system: DU-145 prostate
HCC-2998 colon = test system: HCC-2998 colon
HL-60(TB) leukemia = test system: HL-60(TB) leukemia
HOP-92 NSCLC = test system: HOP-92 NSCLC
MDA-MB-435 = test system: MDA-MB-435
NCI-H23 lung = test system: NCI-H23 lung
SK-OV-3 ovarian = test system: SK-OV-3 ovarian
U251 CNS = test system: U251 CNS
BT-549 breast = test system: BT-549 breast

SMILES | GI50 (COLO 205 colon) | TGI (COLO 205 colon) | GI50 (DU-145 prostate) | TGI (DU-145 prostate) | GI50 (HCC-2998 colon) | TGI (HCC-2998 colon) | GI50 (HL-60(TB) leukemia) | TGI (HL-60(TB) leukemia) | GI50 (HOP-92 NSCLC) | TGI (HOP-92 NSCLC) | GI50 (MDA-MB-435) | TGI (MDA-MB-435) | GI50 (NCI-H23 lung) | TGI (NCI-H23 lung) | GI50 (SK-OV-3 ovarian) | TGI (SK-OV-3 ovarian) | GI50 (U251 CNS) | TGI (U251 CNS) | GI50 (BT-549 breast) | TGI (BT-549 breast)
CCOC(=O)CCCn1c(SC)nc2cc(-c3ccco3)[nH]c2c1=O | > 100 µM | > 100 µM | > 100 µM | > 100 µM | > 100 µM | > 100 µM | > 100 µM | > 100 µM | 25.6 µM | 65.7 µM | > 100 µM | > 100 µM | 90.5 µM | > 100 µM | 5.74 µM | 32.5 µM | 17.1 µM | 56 µM |  | 
C[C@@H]1O[C@@H](O[C@@H]2[C@@H](O)[C@H](OCCc3ccc(O)c(O)c3)O[C@H](COC(=O)/C=C/c3ccc(O)c(O)c3)[C@H]2O)[C@H](O)[C@H](O)[C@H]1O | > 100 µM | > 100 µM | 32.6 µM | > 100 µM |  |  | 54.4 µM | > 100 µM |  |  | 19.9 µM | 40.1 µM |  |  | > 100 µM | > 100 µM | 49.2 µM | > 100 µM | 12.8 µM | 30 µM
CN(C)CC(/C(Cc1ccccc1)=N\NC(=O)c1ccncc1)c1ccccc1 (stereo unspecified) |  | > 100 µM |  |  |  | > 100 µM |  | 32 µM |  | > 100 µM |  |  |  | > 100 µM |  | > 100 µM |  |  |  | 
c1nc2cscc2c2cscc12 |  |  |  |  |  | > 100 µM |  | > 100 µM |  | > 100 µM |  |  |  | > 100 µM |  | > 100 µM |  | > 100 µM |  | 
COc1ccc(C2S/C(=C\c3cc(OC)c(OC)c(OC)c3)C(=O)N2NC(=O)Cc2ccccc2)cc1 (stereo unspecified) |  | > 100 µM |  |  |  |  |  | > 100 µM |  | > 100 µM |  |  |  | > 100 µM |  | > 100 µM |  | > 100 µM |  | 
Fc1ccc(Oc2nccc(-c3c(-c4ccc(F)cc4)ncn3C3CCNCC3)n2)cc1 | > 25 µM | > 25 µM | > 25 µM | > 25 µM | > 25 µM | > 25 µM | > 25 µM | > 25 µM |  |  | > 25 µM | > 25 µM |  |  | > 23.9 µM | > 25 µM | > 25 µM | > 25 µM | > 25 µM | > 25 µM
O=[N+]([O-])c1ccc(Sc2c3ccccc3nc3ccccc23)cc1 |  | > 100 µM |  |  |  | > 100 µM |  | > 100 µM |  |  |  |  |  | > 100 µM |  |  |  | > 100 µM |  | 
Nc1nc(Nc2ccc3c(c2)CC[C@@H](N2CCCC2)CC3)nn1-c1cc2c(nn1)-c1ccccc1CCC2 |  |  | 1.35 µM | 3 µM | 1.61 µM | 3.1 µM |  |  |  |  | 1.69 µM | 3.1 µM | 1.72 µM | 3.56 µM | 1.66 µM | 3.34 µM |  |  | 1.6 µM | 3.36 µM
Cc1cc(O)c(C(=O)CC2(O)C(=O)Nc3c(Cl)cc(Cl)cc32)c(=O)o1 (stereo unspecified) |  | > 100 µM |  |  |  | > 100 µM |  | > 100 µM |  | > 100 µM |  |  |  | > 100 µM |  | > 100 µM |  | > 100 µM |  | 
CC1(C)OC[C@@H]([C@@]2(CO[Si](C)(C)C(C)(C)C)CC=CC(=O)O2)O1 | 33.5 µM | > 100 µM | 18.7 µM | 40.9 µM | 18.6 µM | 34.1 µM |  |  | 14.1 µM | 43.4 µM | 22.8 µM | 57.4 µM |  |  | 30.4 µM | 88.5 µM | 31.2 µM | > 100 µM | 24.1 µM | 47.8 µM
